Where “and” joins values, the source holds several entries; their conditions need not be identical. Identical values can stand only once. Like-named read-outs stand apart in the source and are kept apart here.
Assays:
[1] = Pharmacokinetic test in rats, intravenous injection; format: in vivo, SD rats; conditions: for concentration at 0.25 h / concentration at 0.5 h / concentration at 1 h / concentration at 2 h / concentration at 3 h: Sprague-Dawley, intravenous, 2 mg/kg iv
Procedure: The preferred compound of the present disclosure was assessed in rats for its pharmacokinetic profile.
SD rats, male and female, weighing 150 to 250 g
Mobile phase: 10 mM ammonium formate aqueous solution:methanol=15:85
The ionization source was electrospray ionization source. The detection mode was positive mode. Multiple reaction monitoring (MRM) was used as the scanning mode. The ion reaction for the quantitative analysis was the following: m/z was 305.2\150.0 for XX, and 256.1\167.1 for diphenhydramine (the internal standard).
Four male SD rats were taken. The dosage was calculated as 5 mL/kg body weight and 2 mg/kg. XX or YY was dissolved in DMSO (3% of a total volume) and castor oil (3% of the total volume) was added to the solution, followed by agitating with a vortex mixer. Subsequently, saline was added to the mixture to the total volume to afford the intravenous injection for the rats. The injections were intravenously administered to four male SD rats. Blood from the rats' orbits was collected 3 min, 8 min, 15 min, 30 min, 1 hr, 2 hr, 3 hr, 4 hr, 6 hr, 9 hr, 12 hr and 24 hr later after the injection, respectively.
After the blood collection, the tubes were immediately gently turned upside down at least five times to ensure sufficient mixing, and placed on ice. Heparin was added for anticoagulation. The samples were centrifuged at 8000 rpm for 5 min to separate serum from erythrocyte. The serum was transferred with a pipettor to 2 mL polypropylene (PP) tubes, which were marked with the name of the compound and the time points, and stored in a refrigerator at −40° C. before LC-MS analysis. Samples with high concentrations were diluted with rat blank plasma.
2.5 μL of Meth-H2O and 5 μL of the internal standard solution (20 ng/mL, IS) were added to 50 μL of the plasma. Subsequently, 150 μL of methanol was added to the mixture to precipitate protein and the samples were then centrifuged at 13000 rpm for 5 min. The upper organic phase was taken out, filtrated with a 0.22 μM microporous membrane, and 2 μL of the sample was injected for the LC-MS analysis.

Male ICR mice = assay: Mice swimming test; format: in vivo
Source text: The following method is used for testing the antidepression effect of the compound of the present application. ICR mice or SD rats, gavaged for two successive weeks, were subjected to mice swimming test, mice tail suspension test and rats swimming test. See below for details of the tests and results.
Male ICR mice weighing 18 g to 20 g were used. They were fed on sterilized standard feed.
The compound administered in the test was 1-{2-[2,4-bis(trideuteriomethyl)phenylsulfanyl]phenyl}piperazine hydrobromic acid salt (XX for short). Vortioxetine (YY for short) was used as a control sample. Venlafaxine HCl (from Wyeth, USA) was used as a positive control.
Vortioxetine (15 mg) was combined with 10% hydroxypropyl-β-cyclodextrin to form a solution of 100 mL and was administered at daily dose of 3 mg/kg. 1-{2-[2,4-bis(trideuteriomethyl)phenylsulfanyl]phenyl}piperazine hydrobromic acid salt (15 mg and 7.5 mg) was combined with 10% hydroxypropyl-β-cyclodextrin to form two solutions of 100 mL and was administered at daily doses of 3 mg/kg and 1.5 mg/kg, respectively. Venlafaxine HCl (75 mg) was combined with 0.5% CMC-Na to form a solution of 100 mL and was administered at daily dose of […].
A recording and analysis system for small-animal behavior (Noldus) was used.
All the eighty mice were subjected to prescreening one day before the administration. The mice, fasted for 4 hours were put in a round glass tank (ø 14 cm×h 20 cm, with water of 10 cm depth and at a temperature of 25° C.) to swim. […] The whole swimming course was recorded by the video and the data were collected and analyzed automatically by Noldus software.
The forty qualified mice were divided into 4 groups, each of which had 10 mice, according to the Excel random grouping.
The medicaments were administered to each group by gavage with the amount of 0.2 ml per 10 g of body weight, once a day for 14 successive days. One hour later after the last oral administration, the mice were allowed to swim for 6 min. The video recorded the whole swimming course, and the Noldus software automatically collected and analyzed the data.
The data was given as “average±standard deviation” (x±s). One-way analysis of variance (one-way ANOVA) was used for data difference statistics. Differences among the groups were determined by P<0.05.

[2] = male, rat, plasma, 2 mg/kg, individual rats, read-out: Concentrations in Plasma of Rats after Intravenous Injection
[3] = male, rat, plasma, 2 mg/kg, mean, read-out: Concentrations in Plasma of Rats after Intravenous Injection, Mean ± SD
[4] = rats, iv 2 mg/kg, individual rats, 2 mg/kg

MRT inf ([1]; male, SD, rat, plasma, iv, 2 mg/kg, rats, iv 2 mg/kg, XX n = 4, YY n = 3, read-out: MRT0-∞, Mean ± SD): 6.42 ± 0.19 h
Vd ([1]; male, SD, rat, plasma, iv, 2 mg/kg, rats, iv 2 mg/kg, XX n = 4, YY n = 3, read-out: Vz, Mean ± SD): 26.6 ± 0.52 L/kg
half-life ([1]; male, SD, rat, plasma, iv, 2 mg/kg, rats, iv 2 mg/kg, XX n = 4, YY n = 3, read-out: t1/2, Mean ± SD (converted)): 6.03 ± 0.27 h
AUC(0-t) ([1]; male, SD, rat, plasma, iv, 2 mg/kg, rats, iv 2 mg/kg, individual rats 1-3 (Table 11), read-out: AUC0-t): 594 ng·h/mL
AUC(0-inf) ([1]; male, SD, rat, plasma, iv, 2 mg/kg, rats, iv 2 mg/kg, individual rats, read-out: AUC0-∞): 628 ng·h/mL
Cmax ([1]; male, SD, rat, plasma, iv, 2 mg/kg, rats, iv 2 mg/kg, individual rats, read-out: Cmax): 225 ng/mL
MRT inf ([1]; male, SD, rat, plasma, iv, 2 mg/kg, rats, iv 2 mg/kg, individual rats, read-out: MRT0-∞): 6.56 h
Vd ([1]; male, SD, rat, plasma, iv, 2 mg/kg, rats, iv 2 mg/kg, individual rats, read-out: Vz): 26.3 L/kg
half-life ([1]; male, SD, rat, plasma, iv, 2 mg/kg, rats, iv 2 mg/kg, individual rats, read-out: t1/2 (converted)): 5.72 h
AUC(0-t) ([1]; male, SD, rat, plasma, iv, 2 mg/kg, rats, iv 2 mg/kg, n = 3 (Table 11), read-out: AUC0-t, Mean ± SD): 619 ± 22.2 ng·h/mL
concentration at 0.25 h [1, 2]: 78.1 ng/mL
concentration at 0.25 h [1, 3]: 137 ± 6.05 ng/mL
concentration at 0.5 h [1, 2]: 76.6 ng/mL
concentration at 0.5 h [1, 3]: 124 ± 13 ng/mL
concentration at 1 h [1, 2]: 72.2 ng/mL
concentration at 1 h [1, 3]: 94.2 ± 6.06 ng/mL
concentration at 2 h [1, 2]: 60.7 ng/mL
concentration at 2 h [1, 3]: 86.4 ± 16.8 ng/mL
concentration at 3 h [1, 2]: 49.6 ng/mL
concentration at 3 h [1, 3]: 67 ± 10.2 ng/mL
CL, Mean ± SD ([1]; rats, iv 2 mg/kg, XX n = 4, YY n = 3): 3.06 ± 0.11 L/h/k
AUC(0-t) ([1]; rats, iv 2 mg/kg, individual rats 1-3 (Table 11), 2 mg/kg): 637.9 ng·h/mL and 624.3 ng·h/mL
AUC0-∞ [1, 4]: 674.6 ng·h/mL and 660.5 ng·h/mL
CL [1, 4]: 3.19 L/h/k and 2.97 L/h/k and 3.03 L/h/k
Cmax [1, 4]: 246.0 ng/mL and 170.6 ng/mL
MRT0-∞ [1, 4]: 6.20 h and 6.50 h
Vz [1, 4]: 27.2 L/kg
t1/2 [1, 4]: 6.15 h and 6.22 h
Compound: Cc1ccc(Sc2ccccc2N2CCNCC2)c(C)c1 [YY, 1-[2-(2,4-dimethyl-phenylsulfanyl)-phenyl]piperazine]
effect on length of time that the mice stopped swimming vs blank control (Male ICR mice; 3 mg/kg gavage, two successive weeks): did not shorten
Duration without Movement within the Last 4 min of the Whole 6 min (Male ICR mice; mice, gavage once a day for 14 days, 3 mg/kg, n = 10, x ± s): 199.6 ± 26.1 s
